# Data reported in US12295396B2, “Antagonists of T2R54 and compositions and uses thereof” (Firmenich Incorporated, priority 2018, dated 2025).
# pIC50: −log10 of the molar value.
# Target: T1, hT2R54 (Homo sapiens, UniProt P59534)
# T1 construct: expressed in transfected cells; it overexpresses a promiscuous G protein
# T1 sequence (P59534 1-338): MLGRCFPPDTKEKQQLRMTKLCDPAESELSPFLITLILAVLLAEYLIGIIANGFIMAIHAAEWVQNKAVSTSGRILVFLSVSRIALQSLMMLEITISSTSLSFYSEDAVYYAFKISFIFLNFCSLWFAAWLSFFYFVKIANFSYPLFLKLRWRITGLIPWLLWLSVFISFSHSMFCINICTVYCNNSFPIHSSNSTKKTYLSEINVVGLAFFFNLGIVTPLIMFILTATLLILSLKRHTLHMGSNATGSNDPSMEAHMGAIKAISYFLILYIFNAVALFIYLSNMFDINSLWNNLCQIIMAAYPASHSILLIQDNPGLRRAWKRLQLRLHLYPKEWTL
# Assay: Cell-based assay for measuring hT2R54 inhibition (FLIPR calcium, Fluo4AM, acetaminophen as bitter agonist)
# Conditions: FIG. 1; cells expressing hT2R54, not control host cells
# Description: Cells stably expressing hT2R54 and a promiscuous G protein were seeded in 384 well plates 24 hours prior to the experiment. Cells were loaded with the calcium indicator Fluo4AM, washed and loaded in a FLIPR instrument with a compound plate containing increasing doses of acetaminophen in quadruplicates and prepared at 2× of final concentration. Baseline was recorded for 10 seconds, then 25 μl of […] was added onto 25 μl of cells and resulting changes in fluorescence were monitored over an additional 3 minutes. The host cell line overexpressing the G protein but not hT2R54 was treated as described above.
# The ability of a test compound that blocks bitter taste elicited through hT2R54 was measured in this assay, as follows. Cells stably expressing hT2R54 and a promiscuous G protein were seeded in 384 well plates 24 hours prior to the experiment. Cells were loaded with the calcium indicator Fluo4AM, washed and loaded in a FLIPR instrument with a compound plate containing increasing doses of acetaminophen in buffer and increasing doses of acetaminophen with depicted fixed concentrations of Cmpd 109 (Table 4). Base line was recorded for 10 seconds, then 25 μl of compound and compound mixtures were added onto 25 μl of cells and resulting changes in fluorescence were monitored over an additional 3 minutes. The concentration of test compound that blocks half of the response when the bitter compound alone is present is presented as the EC50 or IC50 value.
# In the examples above, the EC50 of compounds for blocking bitter taste elicited through T2R54 was measured in the same manner.
row,Structure (SMILES),response of hT2R54-expressing cells to bitter tastant
1,"CC(=O)Nc1ccc(O)cc1 [acetaminophen, reference compound]",measurable change in intracellular calcium

# Same assay, conditions: Table 2; cells stably expressing hT2R54 and a promiscuous G protein; read-out: hT2R54 IC50
row,Structure (SMILES),pIC50
1,"COc1ccc(F)cc1C(=O)N1CCN(CC(=O)Nc2cc3c(cc2C(C)=O)OCO3)CC1 [compound 2, N-(6-Acetylbenzo[d][1,3]dioxol-5-yl)-2-(4-(5-fluoro-2-methoxybenzoyl)piperazin-1-yl)acetamide]",7.57
2,"CCCOC(=O)N1CCN(CC(=O)Nc2cc3c(cc2C(C)=O)OCO3)CC1 [compound 3, Propyl 4-(2-((6-Acetylbenzo[d][1,3]dioxol-5-yl)amino)-2-oxoethyl)piperazine-1-carboxylate]",7.82
3,"CC(=O)c1cc2c(cc1NC(=O)CN1CCN(C(=O)NC(C)C)CC1)OCO2 [compound 4, 4-(2-((6-Acetylbenzo[d][1,3]dioxol-5-yl)amino)-2-oxoethyl)-N-isopropylpiperazine-1-carboxamide]",7.47
4,"CC(=O)c1cc2c(cc1NC(=O)CN1CCN(S(=O)(=O)C(C)C)CC1)OCO2 [compound 5, N-(6-acetylbenzo[d][1,3]dioxol-5-yl)-2-(4-(isopropylsulfonyl)piperazin-1-yl)acetamide]",6.89
5,"COc1cc2c(cc1NC(=O)CN1CCN(C(=O)CC(C)C)CC1)OCO2 [compound 6, N-(6-Methoxybenzo[d][1,3]dioxol-5-yl)-2-(4-(3-methylbutanoyl)piperazin-1-yl)acetamide]",6.31
6,CC(=O)c1cc2c(cc1NC(=O)CN1CCN(C(C)=O)CC1)OCO2 [compound 7],7.05
7,CCC(=O)N1CCN(CC(=O)Nc2cc3c(cc2C(C)=O)OCO3)CC1 [compound 8],7.30
8,CCCC(=O)N1CCN(CC(=O)Nc2cc3c(cc2C(C)=O)OCO3)CC1 [compound 9],7.54
9,CCCCC(=O)N1CCN(CC(=O)Nc2cc3c(cc2C(C)=O)OCO3)CC1 [compound 10],8.05
10,CC(=O)c1cc2c(cc1NC(=O)CN1CCN(C(=O)C(C)C)CC1)OCO2 [compound 11],7.40
11,CC(=O)c1cc2c(cc1NC(=O)CN1CCN(C(=O)C3CC3)CC1)OCO2 [compound 12],7.40
12,CC(=O)c1cc2c(cc1NC(=O)CN1CCN(C(=O)C(C)(C)C)CC1)OCO2 [compound 13],7.64
13,CC(=O)c1cc2c(cc1NC(=O)CN1CCN(C(=O)CC(C)(C)C)CC1)OCO2 [compound 14],7.10
14,CC(=O)c1cc2c(cc1NC(=O)CN1CCN(C(=O)CC3CC3)CC1)OCO2 [compound 15],7.62
15,CC(=O)c1cc2c(cc1NC(=O)CN1CCN(C(=O)C3CCCC3)CC1)OCO2 [compound 16],7.54
16,CC(=O)c1cc2c(cc1NC(=O)CN1CCN(C(=O)C3CCCCC3)CC1)OCO2 [compound 17],6.82
17,CC(=O)c1cc2c(cc1NC(=O)CN1CCN(C(=O)CO)CC1)OCO2 [compound 18],6.67
18,COCC(=O)N1CCN(CC(=O)Nc2cc3c(cc2C(C)=O)OCO3)CC1 [compound 19],7.22
19,CC(=O)c1cc2c(cc1NC(=O)CN1CCN(C(=O)COC(C)C)CC1)OCO2 [compound 20],6.77
20,COCCOCC(=O)N1CCN(CC(=O)Nc2cc3c(cc2C(C)=O)OCO3)CC1 [compound 21],6.75
21,CC(=O)c1cc2c(cc1NC(=O)CN1CCN(C(=O)C3CCCCO3)CC1)OCO2 (stereo not shown) [compound 23],7.74

row,Structure (SMILES),pIC50
1,CC(=O)c1cc2c(cc1NC(=O)CN1CCN(C(=O)C3CCOCC3)CC1)OCO2 [compound 24],6.47
2,CC(=O)c1cc2c(cc1NC(=O)CN1CCN(C(=O)C3CCN(C)CC3)CC1)OCO2 [compound 25],5.36
3,CC(=O)c1cc2c(cc1NC(=O)CN1CCN(C(=O)CN3CCCC3)CC1)OCO2 [compound 27],6.75
4,CC(=O)c1cc2c(cc1NC(=O)CN1CCN(C(=O)CN3CCOCC3)CC1)OCO2 [compound 28],6.97
5,CCOC(=O)N1CCN(CC(=O)Nc2cc3c(cc2C(C)=O)OCO3)CC1 [compound 29],6.51
6,CC(=O)c1cc2c(cc1NC(=O)CN1CCN(C(=O)OC(C)C)CC1)OCO2 [compound 30],7.40
7,CC(=O)c1cc2c(cc1NC(=O)CN1CCN(C(=O)Oc3ccccc3)CC1)OCO2 [compound 31],6.58
8,CC(=O)c1cc2c(cc1NC(=O)CN1CCN(C(=O)NCc3ccccc3)CC1)OCO2 [compound 32],7.68
9,CC(=O)c1cc2c(cc1NC(=O)CN1CCN(C(=O)Nc3ccccc3)CC1)OCO2 [compound 33],7.30
10,CC(=O)c1cc2c(cc1NC(=O)CN1CCN(C(=O)c3ccccc3)CC1)OCO2 [compound 34],7.70
11,CC(=O)c1cc2c(cc1NC(=O)CN1CCN(C(=O)c3cccs3)CC1)OCO2 [compound 35],7.40
12,CC(=O)c1cc2c(cc1NC(=O)CN1CCN(C(=O)c3ccco3)CC1)OCO2 [compound 36],8.40
13,CC(=O)c1cc2c(cc1NC(=O)CN1CCN(C(=O)c3ccsc3)CC1)OCO2 [compound 37],7.64
14,CC(=O)c1cc2c(cc1NC(=O)CN1CCN(C(=O)c3cccc(O)c3)CC1)OCO2 [compound 38],7.30
15,CC(=O)c1cc2c(cc1NC(=O)CN1CCN(C(=O)c3ccncc3)CC1)OCO2 [compound 39],7.15
16,CC(=O)c1cc2c(cc1NC(=O)CN1CCN(C(=O)c3ccccc3O)CC1)OCO2 [compound 40],7.10
17,COc1ccccc1C(=O)N1CCN(CC(=O)Nc2cc3c(cc2C(C)=O)OCO3)CC1 [compound 41],7.40
18,CC(=O)c1cc2c(cc1NC(=O)CN1CCN(C(=O)c3cccnc3)CC1)OCO2 [compound 42],7.22
19,CC(=O)c1cc2c(cc1NC(=O)CN1CCN(C(=O)c3ccc(O)cc3)CC1)OCO2 [compound 43],7.10
20,CC(=O)c1cc2c(cc1NC(=O)CN1CCN(C(=O)c3ccccc3F)CC1)OCO2 [compound 44],7.30
21,CC(=O)c1cc2c(cc1NC(=O)CN1CCN(C(=O)c3ccc(F)cc3)CC1)OCO2 [compound 45],7.55

row,Structure (SMILES),pIC50
1,CC(=O)c1cc2c(cc1NC(=O)CN1CCN(C(=O)c3cccc(F)c3)CC1)OCO2 [compound 46],7.59
2,COc1ccc(C(=O)N2CCN(CC(=O)Nc3cc4c(cc3C(C)=O)OCO4)CC2)cc1 [compound 47],7.68
3,COc1cccc(C(=O)N2CCN(CC(=O)Nc3cc4c(cc3C(C)=O)OCO4)CC2)c1 [compound 48],7.89
4,CC(=O)c1cc2c(cc1NC(=O)CN1CCN(C(=O)c3ccccn3)CC1)OCO2 [compound 49],7.00
5,CC(=O)c1cc2c(cc1NC(=O)CN1CCN(C(=O)c3cccc(CO)c3)CC1)OCO2 [compound 50],6.40
6,COCc1cccc(C(=O)N2CCN(CC(=O)Nc3cc4c(cc3C(C)=O)OCO4)CC2)c1 [compound 51],6.63
7,CC(=O)c1cc2c(cc1NC(=O)CN1CCN(C(=O)Cc3ccccc3)CC1)OCO2 [compound 52],7.29
8,CC(=O)c1cc2c(cc1NC(=O)CN1CCN(C(=O)Cc3ccccc3O)CC1)OCO2 [compound 53],7.74
9,COc1ccccc1CC(=O)N1CCN(CC(=O)Nc2cc3c(cc2C(C)=O)OCO3)CC1 [compound 54],7.62
10,CC(=O)c1cc2c(cc1NC(=O)CN1CCN(C(=O)Cc3ccccc3F)CC1)OCO2 [compound 55],7.15
11,CC(=O)c1cc2c(cc1NC(=O)CN1CCN(C(=O)Cc3cccnc3)CC1)OCO2 [compound 56],7.10
12,CC(=O)c1cc2c(cc1NC(=O)CN1CCN(C(=O)Cc3cccc(O)c3)CC1)OCO2 [compound 57],7.00
13,COc1cccc(CC(=O)N2CCN(CC(=O)Nc3cc4c(cc3C(C)=O)OCO4)CC2)c1 [compound 58],7.22
14,CC(=O)c1cc2c(cc1NC(=O)CN1CCN(C(=O)Cc3cccc(F)c3)CC1)OCO2 [compound 59],6.70
15,CC(=O)c1cc2c(cc1NC(=O)CN1CCN(C(=O)Cc3ccncc3)CC1)OCO2 [compound 60],7.10
16,CC(=O)c1cc2c(cc1NC(=O)CN1CCN(C(=O)Cc3ccc(O)cc3)CC1)OCO2 [compound 61],7.30
17,COc1ccc(CC(=O)N2CCN(CC(=O)Nc3cc4c(cc3C(C)=O)OCO4)CC2)cc1 [compound 62],6.70
18,CC(=O)c1cc2c(cc1NC(=O)CN1CCN(C(=O)Cc3ccc(F)cc3)CC1)OCO2 [compound 63],6.40
19,CC(=O)c1cc2c(cc1NC(=O)CN1CCN(C(=O)Cc3ccco3)CC1)OCO2 [compound 64],7.00

# Same assay, conditions: other T2R54 bitter blockers (table after b418); read-out: hT2R54 IC50
row,Structure (SMILES),pIC50
1,"Cc1cc(N2CCC(C(N)=O)CC2)nc(-c2ccccc2)n1 [A, 1-(6-Methyl-2-phenylpyrimidin-4-yl)piperidine-4-carboxamide]",5.54
2,COc1cc2ncnc(NCc3cccc4c3OCO4)c2cc1OC [B],5.74
